This note sets out measurements from patent US12209096B2, “Compounds and compositions for inducing chondrogenesis” (NOVARTIS AG, priority 2017, dated 2025).

pEC50: −log10 of the molar value. Like-named read-outs stand apart in the source and are kept apart here.

This assay deals with NHACs. Nature of the assay: calcium flux assay. It counts as cell-based, human. The note with it: for Emax: read-out: (A) % Efficacy. How it is done: NHACs were plated in 1536 Greiner plate at 2000 cells/well in 4 ul volume. 24 hours later, 4 ul of Calcium 5 dye solution (Hank's Balanced Salt/HEPES buffer containing 5 mM of Probenecid) was then added and incubated for 1 hour at room temperature. Fluorescence readings at excitation wavelength of 470-495 nm and emission wavelength of 515-575 nm were done using FLIPR high-throughput screening system (Molecular Devices, Sunnyvale, CA). The test compound was then added to each well at the indicated dose. Signal was measured prior compound dispense and after using a first interval of 1 second for 60 reads and second interval of 3 second for 20 reads. Data was analyzed using Molecular Devices ScreenWorks® Software.

What is called pEC50 is the EC50 on a negative log10 scale, so that one unit is a factor of ten. As for `COc1ccc(NC(=O)[C@H]2[C@@H](c3ccnc(C)c3)[C@H]3O[C@@H]2C[C@H]3F)cn1` [Example 14, (1R,2S,3S,4R,5R)-5-fluoro-N-(6-methoxypyridin-3-yl)-3-(2-methylpyridin-4-yl)-7-oxabicyclo[2.2.1]heptane-2-carboxamide], for the setting “Homo sapiens”, the negative-log EC50 (pEC50) was 5.08 and the Emax stood at 115%.

`Cc1cc([C@H]2[C@H]3O[C@H](C[C@H]3F)[C@@H]2C(=O)Nc2cnc(Cl)c(Cl)c2)ccn1` [Example 98, (1R,2R,3S,4R,5R)—N-(5,6-dichloropyridin-3-yl)-5-fluoro-3-(2-methylpyridin-4-yl)-7-oxabicyclo[2.2.1]heptane-2-carboxamide]: where the note is “Homo sapiens”, the negative-log EC50 (pEC50) was 4.68 and the Emax turned out to be 404%.

For the molecule `COc1ccc(NC(=O)[C@@H]2[C@@H]3O[C@@H]([C@H]4C[C@H]43)[C@@H]2c2cccc(C(F)(F)F)n2)cn1` [Example 35, (1S,2S,4R,5R,6S,7S)—N-(6-methoxypyridin-3-yl)-7-(6-(trifluoromethyl)pyridin-2-yl)-8-oxatricyclo[3.2.1.0^2,4]octane-6-carboxamide], under “Homo sapiens”, the pEC50 was less than 4.30 and the Emax amounted to 0%.

In the case of `Cc1cc([C@H]2[C@H]3O[C@H]([C@@H]4C[C@@H]43)[C@@H]2C(=O)Nc2ccc(Cl)cc2C#N)ccn1` [Example 67, (1S,2S,4R,5R,6R,7S)—N-(4-chloro-2-cyanophenyl)-7-(2-methylpyridin-4-yl)-8-oxatricyclo[3.2.1.0^2,4]octane-6-carboxamide], where the note is “Homo sapiens”, the pEC50 was less than 4.30 and the Emax was determined as 39%.

On to `Nc1ncc([C@H]2[C@H]3O[C@H](C[C@@H]3O)[C@@H]2C(=O)Nc2ccc(Cl)c(Cl)c2)cn1` [Example 143, (1R,2R,3S,4R,5S)-3-(2-aminopyrimidin-5-yl)-N-(3,4-dichlorophenyl)-5-hydroxy-7-oxabicyclo[2.2.1]heptane-2-carboxamide], for which, under “Homo sapiens”, the pEC50 is less than 4.30 and the Emax is 0%.

Turning to `Cc1cc([C@H]2[C@H]3O[C@H](C[C@@H]3O)[C@H]2C(=O)Nc2cnc(Cl)c(Cl)c2)ccn1` [Example 6, (1R,2S,3S,4R,5S)-N-(5,-6-dichloropyridin-3-yl)-5-hydroxy-3-(2-methylpyridin-4-yl)-7-oxabicyclo[2.2.1]heptane-2-carboxamide], the “(A) % Efficacy” value was determined as 17% and the pEC50 was less than 4.30.

For the molecule `Cc1cc([C@H]2[C@H]3O[C@H](C[C@H]3F)[C@@H]2C(=O)Nc2cccc(OC(F)(F)F)c2)ccn1` [Example 99, (1R,2R,3S,4R,5R)-5-fluoro-3-(2-methylpyridin-4-yl)-N-(3-(trifluoromethoxy)phenyl)-7-oxabicyclo[2.2.1]heptane-2-carboxamide], where the note is “Homo sapiens”, the pEC50 is 4.74 and the Emax amounted to 383%.

Take `Cc1cc([C@H]2[C@H]3O[C@H]([C@@H]4C[C@@H]43)[C@@H]2C(=O)Nc2ccc(Cl)c(F)c2)ccn1` [Example 68, (1S,2S,4R,5R,6R,7S)—N-(4-chloro-3-fluorophenyl)-7-(2-methylpyridin-4-yl)-8-oxatricyclo[3.2.1.0^2,4]octane-6-carboxamide]: under “Homo sapiens”, the negative logarithm of the EC50 (pEC50) was 4.82 and the Emax amounted to 306%.

In the case of `O=C(Nc1ccc(Cl)c(Cl)c1)[C@@H]1[C@@H](c2ccnc(F)c2)[C@H]2O[C@@H]1C[C@@H]2O` (racemic) [Example 142, rac-(1R,2R,3S,4R,5S)—N-(3,4-dichlorophenyl)-3-(2-fluoropyridin-4-yl)-5-hydroxy-7-oxabicyclo[2.2.1]heptane-2-carboxamide], where the note is “Homo sapiens”, the pEC50 was 4.55 and the Emax was determined as 142%.

For the molecule `Cc1cc([C@H]2[C@H]3O[C@H](C[C@@H]3O)[C@H]2C(=O)Nc2cnc(C)c(Cl)c2)ccn1` [Example 5, (1R,2S,3S,4R,5S)-N-(5-chloro-6-methylpyridin-3-yl)-5-hydroxy-3-(2-methylpyridin-4-yl)-7-oxabicyclo[2.2.1]heptane-2-carboxamide], under “Homo sapiens”, the negative logarithm of the EC50 (pEC50) is less than 4.30 and the Emax stood at 18%.

On to `CN(C)[C@@H]1C[C@H]2O[C@@H]1[C@H](c1ccnc(F)c1)[C@H]2C(=O)Nc1ccc(Cl)c(Cl)c1` [Example 172, (1R,2R,3S,4R,5R)—N-(3,4-dichlorophenyl)-5-(dimethylamino)-3-(2-fluoropyridin-4-yl)-7-oxabicyclo[2.2.1]heptane-2-carboxamide], for which, for the setting “Homo sapiens”, the negative-log EC50 (pEC50) is 4.80 and the Emax turned out to be 177%.

For `O=C(Nc1cnc(Cl)c(Cl)c1)[C@@H]1[C@@H](c2ccnc(F)c2)[C@H]2O[C@@H]1C[C@@H]2O` (racemic) [Example 90, rac-(1R,2R,3S,4R,5S)—N-(5,6-dichloropyridin-3-yl)-3-(2-fluoropyridin-4-yl)-5-hydroxy-7-oxabicyclo[2.2.1]heptane-2-carboxamide], where the note is “Homo sapiens”, the pEC50 was less than 4.30 and the Emax worked out at 45%.

`COc1cc([C@H]2[C@H]3O[C@H]([C@@H]4C[C@@H]43)[C@H]2C(=O)Nc2cnc(Cl)c(Cl)c2)ccn1` [Example 1, (1S,2S,4R,5R,6S,7S)—N-(5,6-dichloropyridin-3-yl)-7-(2-methoxypyridin-4-yl)-8-oxatricyclo[3.2.1.0^2,4]octane-6-carboxamide]: for the setting “Homo sapiens”, the negative logarithm of the EC50 (pEC50) is 5.47 and the Emax stood at 164%.

For `COc1cc([C@H]2[C@H]3O[C@H](C[C@@H]3O)[C@H]2C(=O)Nc2ccc(Cl)c(Cl)c2)ccn1` (racemic) [Example 49, rac-(1R,2S,3S,4R,5S)—N-(3,4-dichlorophenyl)-5-hydroxy-3-(2-methoxypyridin-4-yl)-7-oxabicyclo[2.2.1]heptane-2-carboxamide], where the note is “Homo sapiens”, the pEC50 was 4.96 and the Emax was determined as 77%.

Regarding `COc1ccc(NC(=O)[C@@H]2[C@@H]3O[C@@H]([C@H]4C[C@H]43)[C@@H]2c2ccc(C)nc2)cn1` [Example 31, (1S,2S,4R,5R,6S,7S)-N-(6-methoxypyridin-3-yl)-7-(6-methylpyridin-3-yl)-8-oxatricyclo[3.2.1.0^2,4]octane-6-carboxamide], for the setting “Homo sapiens”, the pEC50 was less than 4.30 and the Emax was 0%.

As for `O=C(Nc1ccc(Cl)c(Cl)c1)[C@H]1[C@@H]2O[C@@H]([C@H]3C[C@H]32)[C@@H]1c1cnc(N2CCOCC2)nc1` [Example 133, (1S,2S,4R,5R,6R,7S)—N-(3,4-dichlorophenyl)-7-(2-morpholinopyrimidin-5-yl)-8-oxatricyclo[3.2.1.0^2,4]octane-6-carboxamide], where the note is “Homo sapiens”, the pEC50 is 4.60 and the Emax is 158%.

With `COc1cc([C@H]2[C@H]3O[C@H]([C@@H]4C[C@@H]43)[C@H]2C(=O)Nc2ccc(Cl)c(Cl)c2)ccn1` [Example 24, (1S,2S,4R,5R,6S,7S)-N-(3,4-dichlorophenyl)-7-(2-methoxypyridin-4-yl)-8-oxatricyclo[3.2.1.0^2,4]octane-6-carboxamide], under “Homo sapiens”, the pEC50 is 4.96 and the Emax came to 71%.

Regarding `O=C(Nc1cnc(Cl)c(Cl)c1)[C@@H]1[C@@H]2O[C@@H]([C@H]3C[C@H]32)[C@@H]1c1ccncc1` [Example 43a, (1S,2S,4R,5R,6S,7S)—N-(5,6-dichloropyridin-3-yl)-7-(pyridin-4-yl)-8-oxatricyclo[3.2.1.0^24]octane-6-carboxamide], the “(A) % Efficacy” value was 0% and the negative logarithm of the EC50 (pEC50) was less than 4.30.

In the case of `O=C(Nc1cnc(Cl)c(Cl)c1)[C@H]1[C@@H](c2ccncc2)[C@H]2O[C@@H]1C[C@@H]2O` (single isomer, unassigned) [Example 10a], for the setting “Homo sapiens”, the negative-log EC50 (pEC50) is less than 4.30 and the Emax turned out to be 55%.

For the molecule `COc1cc([C@H]2[C@H]3O[C@H](C[C@@H]3F)[C@H]2C(=O)Nc2ccc(Cl)c(Cl)c2)ccn1` [Example 19, (1R,2S,3S,4R,5S)-N-(3,4-dichlorophenyl)-5-fluoro-3-(2-methoxypyridin-4-yl)-7-oxabicyclo[2.2.1]heptane-2-carboxamide], where the note is “Homo sapiens”, the negative-log EC50 (pEC50) was 4.60 and the Emax is 258%.

`O=C(Nc1ccc(Cl)c(Cl)c1)[C@@H]1[C@@H](c2cncnc2)[C@H]2O[C@@H]1C[C@@H]2O` [Example 141, (1R,2R,3S,4R,5S)—N-(3,4-dichlorophenyl)-5-hydroxy-3-(pyrimidin-5-yl)-7-oxabicyclo[2.2.1]heptane-2-carboxamide]: under “Homo sapiens”, the pEC50 is 4.89 and the Emax came out at 43%.

`Cc1cc([C@H]2[C@H]3O[C@H](C[C@@H]3F)[C@@H]2C(=O)Nc2cnc(Cl)c(Cl)c2)ccn1` [Example 109, (1R,2R,3S,4R,5S)—N-(5,6-dichloropyridin-3-yl)-5-fluoro-3-(2-methylpyridin-4-yl)-7-oxabicyclo[2.2.1]heptane-2-carboxamide]: for the setting “Homo sapiens”, the negative-log EC50 (pEC50) is 4.55 and the Emax was 164%.

Regarding `Cc1cc([C@H]2[C@H](C(=O)Nc3ccc(Cl)c(Cl)c3)[C@@H]3C[C@](C)(O)[C@H]2O3)ccn1` [Example 179, (1S,2S,3R,4S,5S)—N-(3,4-dichlorophenyl)-5-hydroxy-5-methyl-3-(2-methylpyridin-4-yl)-7-oxabicyclo[2.2.1]heptane-2-carboxamide], for the setting “Homo sapiens”, the negative logarithm of the EC50 (pEC50) was less than 4.30 and the Emax was 22%.

For the molecule `COc1ccc(NC(=O)[C@H]2[C@H]3O[C@H]([C@@H]4C[C@@H]43)[C@H]2c2ccc(C)nc2)cn1` [Example 3, (1R,2R,4S,5S,6R,7R)-N-(6-methoxypyridin-3-yl)-7-(6-methylpyridin-3-yl)-8-oxatricyclo[3.2.1.0^2,4]octane-6-carboxamide], under “Homo sapiens”, the pEC50 is less than 4.30 and the Emax is 0%.

For the molecule `O=C(Nc1cccc(C(F)(F)F)c1)[C@H]1[C@@H]2O[C@@H]([C@@H](O)[C@H]2O)[C@@H]1c1ccncc1` [Example 159, (1S,2R,3S,4R,5S,6R)-5,6-dihydroxy-3-(pyridin-4-yl)-N-(3-(trifluoromethyl)phenyl)-7-oxabicyclo[2.2.1]heptane-2-carboxamide], under “Homo sapiens”, the negative logarithm of the EC50 (pEC50) is less than 4.30 and the Emax is 11%.

For “(1R,2S,3S,4R,5S)-N-(5,6-dichloropyridin-3-yl)-5-hydroxy-3-(pyridin-4-yl)-7-oxabicyclo[2.2.1]heptane-2-carboxamide [Example 10]”, the “(A) % Efficacy” value is listed as 0% and the pEC50 is less than 4.30.
